# Experimental data published in article PMC7180948, “New Insights into 4-Anilinoquinazolines as Inhibitors of Cardiac Troponin I–Interacting Kinase (TNNi3K)” (Molecules, 2020).
# Columns and labels:
# Assay in all cases: biochemical
# Parameters in all cases: KINOMEscan competition binding panel (Eurofins DiscoverX), single concentration, percent inhibition
# Conditions in all cases: read-out: 15 at 1 µM % inhibition
# ADCK3 = molecular target: T1, ADCK3 (Homo sapiens, UniProt Q8NI60)
# T1 construct: gene COQ8A
# Outline: (§1)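 KINOMEscan selectivity screen; >400 human kinases; compound at 1 µM, single concentration.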
# AKT2 = AKT2 (Homo sapiens, UniProt P31751)
# Outline: as §1
# AKT3 = AKT3 (Homo sapiens, UniProt Q9Y243)
# Outline: as §1
# BRSK1 = BRSK1 (Homo sapiens, UniProt Q8TDC3)
# Outline: as §1
# CAMK1D = CAMK1D (Homo sapiens, UniProt Q8IU85)
# Outline: as §1
# CAMK4 = CAMK4 (Homo sapiens, UniProt Q16566)
# Outline: as §1
# DAPK1 = DAPK1 (Homo sapiens, UniProt P53355)
# Outline: as §1
# EGFR(L861Q) = EGFR(L861Q) (Homo sapiens, UniProt P00533, L861Q)
# Outline: as §1
# FLT1 = FLT1 (Homo sapiens, UniProt P17948)
# Outline: as §1
# INSR = INSR (Homo sapiens, UniProt P06213)
# Outline: as §1
# KIT(D816H) = KIT(D816H) (Homo sapiens, UniProt P10721, D816H)
# Outline: as §1
# MAP3K4 = MAP3K4 (Homo sapiens, UniProt Q9Y6R4)
# Outline: as §1
# MYLK2 = MYLK2 (Homo sapiens, UniProt Q9H1R3)
# Outline: as §1
# NLK = NLK (Homo sapiens, UniProt Q9UBE8)
# Outline: as §1
# OSR1 = molecular target: T2, OSR1 (Homo sapiens, UniProt O95747)
# T2 construct: gene OXSR1
# Outline: as §1
# PIK3CA = PIK3CA (Homo sapiens, UniProt P42336)
# Outline: as §1
# PIK3CA(C420R) = PIK3CA(C420R) (Homo sapiens, UniProt P42336, C420R)
# Outline: as §1
# PIK3CA(H1047L) = PIK3CA(H1047L) (Homo sapiens, UniProt P42336, H1047L)
# Outline: as §1
# PIM1 = PIM1 (Homo sapiens, UniProt P11309)
# Outline: as §1
# PIP5K1C = PIP5K1C (Homo sapiens, UniProt O60331)
# Outline: as §1
# RIOK2 = RIOK2 (Homo sapiens, UniProt Q9BVS4)
# Outline: as §1
# SGK2 = SGK2 (Homo sapiens, UniProt Q9HBY8)
# Outline: as §1
# STK39 = STK39 (Homo sapiens, UniProt Q9UEW8)
# Outline: as §1
# TAK1 = molecular target: T3, TAK1 (Homo sapiens, UniProt O43318)
# T3 construct: gene MAP3K7
# Outline: as §1
# CAMK1D, sequence (Q8IU85 whole entry): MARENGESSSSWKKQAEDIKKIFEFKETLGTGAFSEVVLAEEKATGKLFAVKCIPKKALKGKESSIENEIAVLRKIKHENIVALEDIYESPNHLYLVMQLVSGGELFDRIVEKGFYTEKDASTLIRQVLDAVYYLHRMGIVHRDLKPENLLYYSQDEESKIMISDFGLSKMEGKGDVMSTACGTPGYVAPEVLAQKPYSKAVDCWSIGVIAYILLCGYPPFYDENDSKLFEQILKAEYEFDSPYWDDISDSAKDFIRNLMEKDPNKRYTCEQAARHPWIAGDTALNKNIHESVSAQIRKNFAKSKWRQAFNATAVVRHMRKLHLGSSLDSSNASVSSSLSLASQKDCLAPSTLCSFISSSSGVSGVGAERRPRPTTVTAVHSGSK
# PIK3CA(H1047L), sequence (P42336 whole entry H1047L): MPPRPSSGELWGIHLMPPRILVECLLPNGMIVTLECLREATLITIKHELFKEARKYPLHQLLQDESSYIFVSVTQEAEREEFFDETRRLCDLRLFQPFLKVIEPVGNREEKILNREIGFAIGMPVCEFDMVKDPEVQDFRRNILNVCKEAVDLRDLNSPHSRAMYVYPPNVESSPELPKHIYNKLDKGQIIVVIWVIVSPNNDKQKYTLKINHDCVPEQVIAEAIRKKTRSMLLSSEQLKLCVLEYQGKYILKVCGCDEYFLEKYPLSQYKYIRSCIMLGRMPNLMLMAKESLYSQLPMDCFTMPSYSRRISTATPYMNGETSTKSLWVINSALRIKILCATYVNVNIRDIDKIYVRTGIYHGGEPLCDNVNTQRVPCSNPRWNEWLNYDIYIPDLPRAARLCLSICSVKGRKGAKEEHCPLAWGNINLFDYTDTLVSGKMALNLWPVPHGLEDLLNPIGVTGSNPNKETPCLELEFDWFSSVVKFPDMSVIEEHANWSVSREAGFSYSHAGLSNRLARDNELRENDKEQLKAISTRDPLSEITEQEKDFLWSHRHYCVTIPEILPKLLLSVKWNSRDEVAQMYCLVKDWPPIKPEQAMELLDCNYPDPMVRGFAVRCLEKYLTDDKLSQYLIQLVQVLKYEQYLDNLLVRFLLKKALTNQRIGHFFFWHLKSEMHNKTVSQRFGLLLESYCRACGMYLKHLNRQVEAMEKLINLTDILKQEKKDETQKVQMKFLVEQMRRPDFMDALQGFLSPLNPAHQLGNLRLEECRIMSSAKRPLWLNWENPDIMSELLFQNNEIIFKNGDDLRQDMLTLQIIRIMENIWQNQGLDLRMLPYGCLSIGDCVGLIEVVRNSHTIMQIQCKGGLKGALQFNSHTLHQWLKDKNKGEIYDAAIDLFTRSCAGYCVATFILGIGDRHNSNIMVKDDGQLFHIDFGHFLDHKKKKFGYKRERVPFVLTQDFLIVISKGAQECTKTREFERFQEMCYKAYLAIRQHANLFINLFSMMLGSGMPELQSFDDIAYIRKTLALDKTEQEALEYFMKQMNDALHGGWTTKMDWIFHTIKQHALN
# BRSK1, sequence (Q8TDC3 whole entry): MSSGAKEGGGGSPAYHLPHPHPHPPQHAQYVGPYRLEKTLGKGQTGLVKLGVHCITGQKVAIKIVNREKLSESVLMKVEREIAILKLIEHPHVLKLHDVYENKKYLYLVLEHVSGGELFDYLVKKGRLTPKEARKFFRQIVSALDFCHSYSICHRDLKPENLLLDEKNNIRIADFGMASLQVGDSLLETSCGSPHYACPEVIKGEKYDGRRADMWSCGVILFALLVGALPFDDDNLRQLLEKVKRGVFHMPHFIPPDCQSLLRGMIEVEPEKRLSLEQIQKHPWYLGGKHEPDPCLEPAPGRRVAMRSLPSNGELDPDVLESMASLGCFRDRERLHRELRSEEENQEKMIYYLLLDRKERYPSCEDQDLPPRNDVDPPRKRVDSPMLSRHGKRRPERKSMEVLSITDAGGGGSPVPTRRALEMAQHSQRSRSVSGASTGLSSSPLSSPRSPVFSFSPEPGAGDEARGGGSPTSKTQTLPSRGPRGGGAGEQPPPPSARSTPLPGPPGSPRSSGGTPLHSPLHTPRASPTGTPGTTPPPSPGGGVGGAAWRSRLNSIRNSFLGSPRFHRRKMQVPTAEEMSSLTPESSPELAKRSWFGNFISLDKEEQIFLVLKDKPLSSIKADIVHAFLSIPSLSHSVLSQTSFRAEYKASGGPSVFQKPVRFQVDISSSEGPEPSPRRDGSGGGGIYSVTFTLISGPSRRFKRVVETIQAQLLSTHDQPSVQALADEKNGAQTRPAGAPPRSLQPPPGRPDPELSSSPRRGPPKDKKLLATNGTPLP
# EGFR(L861Q), sequence (P00533 whole entry L861Q): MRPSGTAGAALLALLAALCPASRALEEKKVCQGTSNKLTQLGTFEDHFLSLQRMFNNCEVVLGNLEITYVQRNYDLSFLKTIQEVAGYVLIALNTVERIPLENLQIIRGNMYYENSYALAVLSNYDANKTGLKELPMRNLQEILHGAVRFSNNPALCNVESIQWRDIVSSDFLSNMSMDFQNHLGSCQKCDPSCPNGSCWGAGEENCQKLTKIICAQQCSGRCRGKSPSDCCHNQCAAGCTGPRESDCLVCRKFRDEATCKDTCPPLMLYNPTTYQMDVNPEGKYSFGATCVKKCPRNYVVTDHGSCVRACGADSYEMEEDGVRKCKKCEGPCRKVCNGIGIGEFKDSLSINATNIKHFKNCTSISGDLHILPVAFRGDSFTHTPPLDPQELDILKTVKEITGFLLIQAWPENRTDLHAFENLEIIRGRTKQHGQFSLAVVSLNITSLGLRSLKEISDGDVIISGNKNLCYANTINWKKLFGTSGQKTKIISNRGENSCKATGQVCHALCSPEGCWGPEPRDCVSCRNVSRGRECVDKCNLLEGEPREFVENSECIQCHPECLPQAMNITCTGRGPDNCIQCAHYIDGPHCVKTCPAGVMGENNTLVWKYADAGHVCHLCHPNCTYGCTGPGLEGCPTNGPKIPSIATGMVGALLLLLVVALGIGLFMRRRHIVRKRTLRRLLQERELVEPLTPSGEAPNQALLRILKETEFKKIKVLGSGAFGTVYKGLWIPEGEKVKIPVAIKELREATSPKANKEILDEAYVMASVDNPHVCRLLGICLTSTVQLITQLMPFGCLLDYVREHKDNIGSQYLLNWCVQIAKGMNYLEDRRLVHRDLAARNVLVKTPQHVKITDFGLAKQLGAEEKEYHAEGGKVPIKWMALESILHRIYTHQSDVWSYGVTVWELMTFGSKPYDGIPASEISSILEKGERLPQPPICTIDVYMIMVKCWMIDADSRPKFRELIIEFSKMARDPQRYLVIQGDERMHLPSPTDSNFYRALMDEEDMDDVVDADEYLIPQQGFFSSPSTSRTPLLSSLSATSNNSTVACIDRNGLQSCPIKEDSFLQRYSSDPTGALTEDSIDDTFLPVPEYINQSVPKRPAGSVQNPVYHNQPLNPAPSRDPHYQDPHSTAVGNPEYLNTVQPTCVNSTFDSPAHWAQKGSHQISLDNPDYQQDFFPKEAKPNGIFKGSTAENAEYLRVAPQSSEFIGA
# FLT1, sequence (P17948 whole entry): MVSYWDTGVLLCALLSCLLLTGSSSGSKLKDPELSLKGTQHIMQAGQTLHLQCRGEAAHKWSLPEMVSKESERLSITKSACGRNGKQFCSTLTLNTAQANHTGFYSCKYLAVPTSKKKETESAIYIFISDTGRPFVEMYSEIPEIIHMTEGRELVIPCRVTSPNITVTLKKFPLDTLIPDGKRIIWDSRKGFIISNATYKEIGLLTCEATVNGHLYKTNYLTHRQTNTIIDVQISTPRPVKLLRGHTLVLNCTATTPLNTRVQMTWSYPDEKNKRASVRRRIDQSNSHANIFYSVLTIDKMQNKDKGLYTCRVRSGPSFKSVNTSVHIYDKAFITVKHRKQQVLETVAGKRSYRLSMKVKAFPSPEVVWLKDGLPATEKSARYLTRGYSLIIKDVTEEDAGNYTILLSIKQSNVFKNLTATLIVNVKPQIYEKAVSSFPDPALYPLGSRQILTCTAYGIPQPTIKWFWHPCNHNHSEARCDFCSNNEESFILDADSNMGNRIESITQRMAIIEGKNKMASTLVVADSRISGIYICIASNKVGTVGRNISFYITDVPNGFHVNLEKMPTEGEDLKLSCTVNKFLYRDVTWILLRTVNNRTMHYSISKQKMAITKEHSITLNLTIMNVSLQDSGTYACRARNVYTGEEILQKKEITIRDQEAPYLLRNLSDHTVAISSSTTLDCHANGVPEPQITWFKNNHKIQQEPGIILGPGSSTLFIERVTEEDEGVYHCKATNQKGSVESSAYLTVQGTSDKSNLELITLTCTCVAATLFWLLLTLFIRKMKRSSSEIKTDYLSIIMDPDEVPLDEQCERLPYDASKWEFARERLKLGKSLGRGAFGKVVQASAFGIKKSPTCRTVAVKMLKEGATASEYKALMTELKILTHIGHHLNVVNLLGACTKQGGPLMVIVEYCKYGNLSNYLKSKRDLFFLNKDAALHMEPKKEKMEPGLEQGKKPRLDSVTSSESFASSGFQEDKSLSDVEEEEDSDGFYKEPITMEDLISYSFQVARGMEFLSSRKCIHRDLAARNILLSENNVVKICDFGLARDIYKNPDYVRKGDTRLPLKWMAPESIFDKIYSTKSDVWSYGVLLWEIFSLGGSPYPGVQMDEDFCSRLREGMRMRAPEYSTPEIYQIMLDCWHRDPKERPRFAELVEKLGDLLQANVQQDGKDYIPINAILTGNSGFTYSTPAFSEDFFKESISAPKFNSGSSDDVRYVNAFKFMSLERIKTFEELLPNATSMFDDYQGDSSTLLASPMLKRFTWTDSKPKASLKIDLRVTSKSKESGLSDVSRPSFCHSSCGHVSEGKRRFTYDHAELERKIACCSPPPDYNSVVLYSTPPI
# PIK3CA, sequence (P42336 whole entry): as the sequence (P42336 whole entry H1047L) above, with L1047H counted along it
# PIK3CA(C420R), sequence (P42336 whole entry C420R): as the sequence (P42336 whole entry H1047L) above, with C420R, L1047H counted along it
smiles,measurement,setting,value
"CNS(=O)(=O)c1ccc(N(C)C)c(Nc2nc(C)nc3cc(OC)c(OC)cc23)c1 [compound 15, 3-((6,7-dimethoxy-2-methylquinazolin-4-yl)amino)-4-(dimethylamino)-N-methylbenzenesulfonamide]",inhibition at 1 µM,ADCK3,9%
same,inhibition at 1 µM,AKT2,0%
same,inhibition at 1 µM,AKT3,4%
same,inhibition at 1 µM,BRSK1,0%
same,inhibition at 1 µM,CAMK1D,0%
same,inhibition at 1 µM,CAMK4,1%
same,inhibition at 1 µM,DAPK1,7%
same,inhibition at 1 µM,EGFR(L861Q),0%
same,inhibition at 1 µM,FLT1,0%
same,inhibition at 1 µM,INSR,11%
same,inhibition at 1 µM,KIT(D816H),16%
same,inhibition at 1 µM,MAP3K4,0%
same,inhibition at 1 µM,MYLK2,3%
same,inhibition at 1 µM,NLK,0%
same,inhibition at 1 µM,OSR1,42%
same,inhibition at 1 µM,PIK3CA,13%
same,inhibition at 1 µM,PIK3CA(C420R),11%
same,inhibition at 1 µM,PIK3CA(H1047L),21%
same,inhibition at 1 µM,PIM1,2%
same,inhibition at 1 µM,PIP5K1C,18%
same,inhibition at 1 µM,RIOK2,9%
same,inhibition at 1 µM,SGK2,0%
same,inhibition at 1 µM,STK39,2%
same,inhibition at 1 µM,TAK1,24%
